Experimental data: patent publication US20240245647A1, “ISOMEROHYDROLASE INHIBITOR FOR TREATMENT OF ATROPHIC FORM OF AGE-RELATED MACULAR DEGENERATION AND STARGARDT DISEASE” (The Trustees of Columbia University in the City of New York, priority 2021, published 2024)
Read-outs that look alike come from different tables or passages of the source.

Key:
RPE65 = biological target: T1, RPE65 (Bos taurus, UniProt Q28175); experiment: In vitro retinol isomerase (isomerohydrolase, IMH) assay with bovine RPE microsomes; assay type: biochemical
T1 construct: Bovine RPE microsomes were prepared as described previously; from tissue; host or cells: bovine retinal pigment epithelium (RPE) microsomes
T1 sequence (Q28175 whole entry): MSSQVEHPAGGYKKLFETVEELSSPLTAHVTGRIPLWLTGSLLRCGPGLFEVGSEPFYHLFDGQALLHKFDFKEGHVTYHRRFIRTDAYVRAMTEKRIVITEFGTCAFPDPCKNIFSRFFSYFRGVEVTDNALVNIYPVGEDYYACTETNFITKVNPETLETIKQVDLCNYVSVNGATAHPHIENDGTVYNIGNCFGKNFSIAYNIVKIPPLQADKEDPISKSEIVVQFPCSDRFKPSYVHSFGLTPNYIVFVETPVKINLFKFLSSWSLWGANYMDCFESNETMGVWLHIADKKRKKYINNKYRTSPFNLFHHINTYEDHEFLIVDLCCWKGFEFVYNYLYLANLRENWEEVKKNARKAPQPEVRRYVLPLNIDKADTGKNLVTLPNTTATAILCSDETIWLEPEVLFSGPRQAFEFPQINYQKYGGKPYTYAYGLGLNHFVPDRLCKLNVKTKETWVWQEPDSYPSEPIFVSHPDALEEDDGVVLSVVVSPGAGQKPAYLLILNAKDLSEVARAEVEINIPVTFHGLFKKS
Method: FIG. 2. Inhibition of the RPE65 isomerase activity by RPE65-61. Bovine RPE microsomes (20 μg) were incubated with 0.2 μM of all-trans-[3H]-retinol in the presence or absence of RPE65-61 for 1 h at 37° C. The generated retinoids were analyzed by HPLC coupled with flow scintillation analyzer. (FIG. 2A) HPLC elution profile without inhibitor; (FIG. 2B) with 375 nM of RPE65-61. Peak 1, retinyl esters; Peak 2, 11-cis-retinol; Peak 3 all-trans-retinol.
All-trans [11,12-^3H]-retinol (1 mCi/ml, 45.5 Ci/mmol, Perkin Elmer, Boston, MA) in N,N-dimethyl formamide (DMF) was used as the substrate for the isomerohydrolase assay. Bovine RPE microsomes were prepared as described previously. For each reaction, 25 μg microsomal proteins from the bovine RPE were added into 200 μl of reaction buffer (10 mM BTP, pH 8.0, 100 mM NaCl) containing 0.2 μM of all-trans retinol, 1% BSA and 25 μM of cellular retinaldehyde-binding protein (CRALBP). For the inhibition of isomerase activity, RPE65-61 dissolved in the DMF was added to the reaction prior to addition of all-trans retinol. The reaction was stopped and retinoids extracted with 300 μl of cold methanol and 300 μl of hexane and centrifuged at 10,000×g for 5 min. The upper layer was collected and the generated retinoids were analyzed by normal phase HPLC as described (Moiseyev, G. et al. 2003). […] The isomerohydrolase activity was calculated from the area of the 11-cis retinol peak using Radiomatic 610TR software (Perkin Elmer, Boston, MA) with synthetic 11-cis [^3H]-retinol as a standard. […] The retinoid profile after completion of the reaction was analyzed by HPLC where the peaks were identified by co-elution with retinoid standards. The RPE65 isomehydrolase activity was calculated based on the 11-cis retinol peak area as described (Moiseyev, G. et al. 2005; Nikolaeva, O. et al. 2009). […] The inhibition constant for RPE65-61 was calculated from the following equation: Ki=[I]/([…]) where [I] is concentration of inhibitor, Vm is maximal velocity in the absence of the inhibitor, and Vmi is maximal velocity in the presence of the inhibitor.

retina = experiment: Light-induced retinal damage (LIRD); assay type: in vivo, BALB/c mice; conditions: 2 mg/kg, 10,000 lux 3 hr, 5 days post-LIRD
Method: FIG. 5. LIRD caused the degeneration in the retina and RPE, which was rescued by inhibitor at the dose of 2 mg/kg in BALB/c mice. (FIG. 5A) Representative histological analysis for the retinas of RPE65-61 injected mice 5 days post-LIRD. Retinal cross-sections of No LIRD Control, LIRD+Vehicle, and LIRD+inhibitor RPE65-61 from three groups were stained with H&E for morphological comparison, 40× magnification. (FIG. 5B) Representative OCT images of mice treated with RPE65-61. […] RPE: retinal pigment epithelium; IS: inner segment; OS: outer segment; ONL: outer nuclear layer; OPL: outer plexiform layer; INL: inner nuclear layer; IPL: inner plexiform layer; RNFL: retinal nerve fiber layer. Bars represent mean±SEM. with n=8 per group. Student's t-test. *P<0.05, **<0.01 and ***<0.001, ****<0.0001.
FIG. 6. […] (FIGS. 6A-B) Shown are representative images of the Western blot detection of rhodopsin protein expression and the correlating quantifications. (FIGS. 6C-D) Cone density was evaluated by immunofluorescence, representative confocal images of immunofluorescence labeling with Peanut Agglutinin Lectin (PNA) and the correlating quantifications, 40× magnification. […]
Mice were dark-adapted overnight with food and water ad libitum. […] The mice were returned to regular housing for 5 days and then the retinal damage was assessed. […]

- RPE65 inhibition, in words (RPE65): effectively inhibit
- IC50 (RPE65; bovine RPE microsomes, 0.2 μM all-trans-[3H]-retinol, read-out: apparent IC50, RPE65 isomerase activity): 80 nM
- IC50 (RPE65; read-out: IC50 in the primary IMH / RPE65 inhibition assay): 95 nM
Structure (SMILES): N=S(=O)(CCN)c1cccc(OCC2CCCCC2)c1 (racemic) [RPE65-61, (±)-(2-aminoethyl) (3-(cyclohexylmethoxy)phenyl) (imino)-λ^6-sulfanone]
- effect against LIRD (histology, ERG) (retina): protective effect
